Experimental data from patent US20190015423A1, “REGULATION OF GENE EXPRESSION BY MODULATING PRIMARY CILIA LENGTH” (THE TRUSTEES OF COLUMBIA UNIVERSITY IN THE CITY OF NEW YORK, priority 2016, published 2019).
Entries after “also recorded” stand apart in the source; their conditions may differ. Structures can show the parent of a compound that is named as a salt.

Columns and labels:
MLO-Y4 osteocytes [1] = assay: Primary cilia length and incidence by immunocytochemistry (acetylated α-tubulin); assay type: cell-based; details: for cilia incidence in untransfected (healthy, ciliated) cells: fenoldopam; for cilia incidence in AC6 siRNA treated cells / recovering cilia length in AC6 siRNA treated cells: fenoldopam on AC6 siRNA treated cells
Procedure: MLO-Y4 osteocytes were cultured on collagen-coated dishes in MEMα (Life Tech) supplemented with 5% fetal bovine serum, 5% calf serum, and 1% penicillin/streptomycin at 37° C. and 5% CO2. […] These agents, or their vehicle control, were applied to cells for 16 h prior to experimentation. MTT, (methylthiazolyldiphenyl-tetrazolium bromide) assay (Sigma) was performed according to manufacturer's protocol to assess cell viability during drug treatments. Phase contrast microscopy with an Olympus CKX41 inverted microscope and 40× objective was used to assess cell morphology.
For primary cilia imaging and analysis, cells cultured on collagen I-coated glass were fixed in 10% formalin and treated with anti-acetylated α-tubulin primary antibody, 1:1, from a C3B9 hybridoma cell line (Sigma). Cilia were visualised with Alexa-Fluor 488 secondary antibody, 1:1000 (Life Technologies) and imaged with a 100× oil objective on an Olympus Fluoview FV1000 confocal microscope. Nuclei were stained with DAPI (Life Technologies). Cilia length was analyzed using Image J software.
Gene silencing was performed by siRNA mediated knockdown and compared to scramble siRNA control (Life Technologies). […]

MLO-Y4 osteocytes [2] = assay: mRNA expression (AC6, IFT88) by quantitative real-time PCR, no flow; assay type: cell-based; details: for IFT88 mRNA expression in untransfected cells: fenoldopam
[3] = Adverse effects of drug treatment: body, kidney and liver weight, H&E histology, bone ultrastructure, injection site; assay type: in vivo, mice; details: fenoldopam 20 mg/kg; for visible bone ultrastructure: loaded ulnae
Text: Mice were housed in the Columbia University Barrier Facility and fed ad libidum. All procedures performed were in accordance with Columbia University Institutional Animal Care and Use Committee guidelines.
Kidneys and liver were dissected from animals, weighed, fixed in 10% formalin, and stored in 70% ethanol before being paraffin embedded. 5 μm thick longitudinal sections were made, and samples were stained with hematoxylin and eosin to visualize tissue structure. Images were captured at 4× magnification. Kidney function was broadly examined by urine creatinine concentration. […] Hydrophobic sand (Lab Sand) was used for urine sample collection, and analysis was performed using a total urine creatinine kit (Cayman Chemical).

[4] = test system: Ovariectomized (OVX) mice; assay: Load-induced bone formation in ovariectomized (OVX) osteoporotic mice; assay type: in vivo; details: fenoldopam 20 mg/kg 7 days, compressive ulnar load
Procedure: On the final three days of drug or control injection, animals were also subjected to compressive ulnar load at a peak load of 3 N using a 2 Hz sine wave for 120 cycles, as previously described ([…]. et al. PLoS One 7, (2012); Lee, K. L. et al. FASEB J. 28, 1157-1165 (2014)). Contralateral limbs served as a non-loaded control. 2 days following load, mice were treated with 10 mg/kg calcein (Sigma), and 4 days later 70 mg/kg alizarin (Sigma), with mice being sacrificed 6 days later. Dynamic histomorphometry was performed as previously described, measuring the amount and separation of calcein and alizarin labels to quantify mineralizing surface (rMS/BS), mineral apposition rate (rMAR), and bone formation rate (rBFR/BS) relative to non-loaded controls ([…]. et al. PLoS One 7, (2012); Lee, K. L. et al. FASEB J. 28, 1157-1165 (2014)). Left and right ulnae were dissected and preserved in ethanol. Samples were then infiltrated with methyl methacrylate, and embedded in methyl methacrylate and benzoyl peroxide. Transverse sections of the ulnar midshaft were imaged on a laser scanning confocal microscope (Olympus Fluoview FV1000). Measurements of outer bone perimeter (OP), single label perimeter (SL), double label perimeter (DL), and double label area (DA) were made in ImageJ. The mineralizing surface relative to outer bone surface (MS/BS), mineral apposition rate (MAR), and bone formation rate (BFS/BS) were calculated as: Relative measurements-rMS/BS, rMAR, rBFR/BS-were determined by subtracting non-loaded from loaded ulnae to display differences due to mechanical load. Ovariectomized (OVX) and Sham animals were purchased directly from Jackson Laboratories, with surgery performed at 12 weeks old. […] Dynamic histomorphometry was only performed on OVX animals, while Sham animals were used to confirm osteoporotic phenotype based on μCT analysis.

[5] = fenoldopam on IFT88 siRNA treated cells
[6] = fenoldopam treatment of osteocytes

**Q.** With `Oc1ccc(C2CNCCc3c2cc(O)c(O)c3Cl)cc1` (centres unmarked) [fenoldopam, Fenoldopam mesylate] as the compound, how does the “primary cilia length compared to vehicle control (in words)” value (MLO-Y4 osteocytes [1]; 10 μM fenoldopam, 16 h) read?
**A.** Its value is “significantly increases”.

**Q.** And the “primary cilia length compared to vehicle control (in words)” value (MLO-Y4 osteocytes [1]; 10 μM fenoldopam, 16 h, listed as Fenoldopam)?
**A.** The value was “increased”.

**Q.** What about the “increases in cilia length compared to vehicle control” value (MLO-Y4 osteocytes [1]; 10 μM fenoldopam, 16 h, mean±SEM) of the same compound?
**A.** The value was 26%±7%.

**Q.** And the “cilia incidence in untransfected (healthy, ciliated) cells” value (MLO-Y4 osteocytes [1])?
**A.** Its value is “no significant effect”.

**Q.** And the “cilia incidence in AC6 siRNA treated cells” value (MLO-Y4 osteocytes [1])?
**A.** Its value is “Neither AC6 siRNA nor fenoldopam alter cilia incidence”.

**Q.** And the “recovering cilia length in AC6 siRNA treated cells” value (MLO-Y4 osteocytes [1])?
**A.** Its value is “not recovered”.

**Q.** What about the “cilia incidence in AC6 siRNA treated cells” value (MLO-Y4 osteocytes [1]; listed as Fenoldopam) of the same compound?
**A.** The value was “no effect”.

**Q.** And the “recovering cilia length in AC6 siRNA treated cells” value (MLO-Y4 osteocytes [1]; listed as Fenoldopam)?
**A.** The value was “no effect”.

**Q.** And the “cilia incidence in IFT88 siRNA treated cells” value (MLO-Y4 osteocytes [1]; [5])?
**A.** Its value is “significantly recovering; also recorded: recovered”.

**Q.** What about the “cilia length / formation in IFT88 siRNA treated cells” value (MLO-Y4 osteocytes [1]; [5]) of the same compound?
**A.** The value was “noticeably recovered; also recorded: appears to recover cilia length”.

**Q.** What about the “cilia length / formation in IFT88 siRNA treated cells” value (MLO-Y4 osteocytes [1]; fenoldopam on IFT88 siRNA treated cells, listed as Fenoldopam) of the same compound?
**A.** Its value is “recovers primary cilia formation”.

**Q.** And the “cilia incidence in untransfected (healthy, ciliated) cells” value (MLO-Y4 osteocytes [1]; listed as Fenoldopam)?
**A.** Its value is “no effect”.

**Q.** What about the “IFT88 mRNA expression in untransfected cells” value (MLO-Y4 osteocytes [2]) of the same compound?
**A.** The value was “no significant effect”.

**Q.** What about the “AC6 mRNA expression (in words)” value (MLO-Y4 osteocytes [2]; [6]) of the same compound?
**A.** The value was “significantly increases”.

**Q.** And the “increase in AC6 mRNA expression” value (MLO-Y4 osteocytes [2]; [6])?
**A.** The value was 20%±8%.

**Q.** And the “IFT88 mRNA expression in untransfected cells” value (MLO-Y4 osteocytes [2]; listed as Fenoldopam)?
**A.** The value was “did not alter”.

**Q.** And the visible bone ultrastructure ([3]; 7 days, vs vehicle control)?
**A.** The visible bone ultrastructure was “no difference”.

**Q.** And the visible bone ultrastructure ([3]; 7 days, vs vehicle control, listed as Fenoldopam)?
**A.** Its visible bone ultrastructure is “no qualitative change”.

**Q.** And the “kidney morphology assessed by H&E stain” value ([3]; 7 days, vs vehicle control)?
**A.** The value was “remained unchanged”.

**Q.** What about the kidney weight ([3]; 7 days, vs vehicle control) of the same compound?
**A.** Its kidney weight is “remained unchanged”.

**Q.** What about the mouse weight ([3]; 7 days, vs vehicle control) of the same compound?
**A.** The mouse weight was “remained unchanged”.

**Q.** What about the kidney histology ([3]; preliminary study) of the same compound?
**A.** Its kidney histology is “no abnormalities or cysts”.

**Q.** And the “kidney weight to body mass measurements” value ([3]; preliminary study)?
**A.** The value was “no different than vehicle controls”.

**Q.** What about the “bone formation rate (rBFR/BS) compared to vehicle control” value [4] of the same compound?
**A.** Its value is “increased”.

**Q.** What about the “mineral apposition rate (rMAR) compared to vehicle control” value [4] of the same compound?
**A.** The value was “increased”.

**Q.** And the “mineralizing surface (rMS/BS) compared to vehicle control” value [4]?
**A.** The value was “increased”.
